The values that follow come from publication doi:10.1101/2025.03.25.645215v1 (biorxiv, 2025).

In data set [1] the target is T1, B^0AT2/SLC6A15 (eGFP-hSLC6A15) (Homo sapiens, UniProt Q9H2J7).
T1 sequence (Q9H2J7 1-730): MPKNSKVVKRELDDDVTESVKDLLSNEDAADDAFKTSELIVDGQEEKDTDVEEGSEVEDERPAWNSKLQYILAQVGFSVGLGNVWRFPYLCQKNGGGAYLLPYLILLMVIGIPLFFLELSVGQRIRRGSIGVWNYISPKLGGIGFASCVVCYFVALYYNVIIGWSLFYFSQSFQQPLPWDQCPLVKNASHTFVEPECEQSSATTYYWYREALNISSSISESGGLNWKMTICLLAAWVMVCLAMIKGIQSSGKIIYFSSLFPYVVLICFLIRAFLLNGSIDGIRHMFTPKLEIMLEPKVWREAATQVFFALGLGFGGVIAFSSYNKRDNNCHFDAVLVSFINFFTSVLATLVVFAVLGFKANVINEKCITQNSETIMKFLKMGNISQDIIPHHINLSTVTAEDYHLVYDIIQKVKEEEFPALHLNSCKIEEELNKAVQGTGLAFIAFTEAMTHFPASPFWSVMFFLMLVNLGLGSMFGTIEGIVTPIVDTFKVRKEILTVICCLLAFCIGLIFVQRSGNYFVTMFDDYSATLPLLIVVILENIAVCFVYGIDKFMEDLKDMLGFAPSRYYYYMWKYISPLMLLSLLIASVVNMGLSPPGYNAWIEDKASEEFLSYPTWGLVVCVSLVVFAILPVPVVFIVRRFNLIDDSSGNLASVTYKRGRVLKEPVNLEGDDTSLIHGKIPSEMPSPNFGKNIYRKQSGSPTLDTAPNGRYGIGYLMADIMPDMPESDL
Nature of the data set: cell-based. Also on record: species or system HEK293 eGFP-hSLC6A15.

Data set [2] deals with T1, B^0AT2/SLC6A15 (eGFP-hSLC6A15). Briefly: cell-based. Also on record: species or system HEK293 eGFP-hSLC6A15. This is another data set of the same source.
A further data set concerns the target GAT1 (hGAT1) (Homo sapiens, UniProt P30531). Nature of the data set: 3H-GABA uptake inhibition, HEK293, 384-well. In kind it is cell-based.
In data set [3] the test system is NTT4/SLC6A17 (NTT4-B^0AT2 chimera). Briefly: 3H-proline uptake inhibition, HEK293, 384-well. Format: cell-based. The conditions noted are these: blanket statement for all 1,5-benzodiazepine analogs.
The next data set deals with DAT (hDAT) (Homo sapiens, UniProt Q01959). Nature of the data set: 3H-dopamine uptake inhibition, HEK293, 384-well. Format: cell-based.
Another data set has as its target SERT (hSERT) (Homo sapiens, UniProt P31645). Nature of the data set: 3H-5HT uptake inhibition, HEK293, 384-well. In kind it is cell-based.
Data set [4] has as its target T2, B^0AT2/SLC6A15 (AAV mouse SLC6A15 in primary hippocampal neurons) (Mus musculus, UniProt Q8BG16).
T2 sequence (Q8BG16 1-729): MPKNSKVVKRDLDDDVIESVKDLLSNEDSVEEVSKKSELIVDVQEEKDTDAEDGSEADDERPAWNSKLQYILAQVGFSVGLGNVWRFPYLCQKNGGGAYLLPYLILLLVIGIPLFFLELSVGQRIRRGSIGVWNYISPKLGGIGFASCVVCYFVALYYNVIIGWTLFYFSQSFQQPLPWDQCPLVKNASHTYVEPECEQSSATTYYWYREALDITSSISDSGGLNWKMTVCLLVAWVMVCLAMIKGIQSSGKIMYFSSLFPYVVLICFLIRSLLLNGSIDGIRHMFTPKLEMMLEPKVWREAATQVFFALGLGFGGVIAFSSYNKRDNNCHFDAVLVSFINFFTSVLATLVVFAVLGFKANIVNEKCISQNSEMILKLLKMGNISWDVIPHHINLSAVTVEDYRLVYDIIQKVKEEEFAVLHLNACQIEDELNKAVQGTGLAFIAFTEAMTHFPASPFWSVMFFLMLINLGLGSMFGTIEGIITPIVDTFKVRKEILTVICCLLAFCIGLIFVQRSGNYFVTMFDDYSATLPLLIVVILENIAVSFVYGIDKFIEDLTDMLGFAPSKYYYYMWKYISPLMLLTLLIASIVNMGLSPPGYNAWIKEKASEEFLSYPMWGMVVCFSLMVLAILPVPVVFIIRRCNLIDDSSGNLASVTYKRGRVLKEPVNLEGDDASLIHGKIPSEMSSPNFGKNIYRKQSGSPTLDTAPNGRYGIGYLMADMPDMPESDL
Nature of the data set: 3H-proline uptake inhibition, AAV-transduced primary hippocampal neurons. In kind it is cell-based.

Data set [5] deals with T1, B^0AT2/SLC6A15 (eGFP-hSLC6A15). Nature of the data set: cell-based. Also on record: species or system HEK293 eGFP-hSLC6A15. The source holds these as a separate data set.
The target is the same in data set [6]. Briefly: inhibition of 3H-proline uptake, HEK293. Format: cell-based.
The target is the same in data set [7]. Nature of the data set: inhibition of 3H-proline uptake by unlabelled proline, HEK293. In kind it is cell-based.
Substrate in data set [8]: O=C(O)[C@@H]1CCCN1
Nature of the data set: cells, lysate or membranes. The conditions noted are these: labelled compound, pH 7.4, 120 mM Na+.

Bounds are passed on as bounds.

GAT1 (hGAT1), sequence (P30531 whole entry): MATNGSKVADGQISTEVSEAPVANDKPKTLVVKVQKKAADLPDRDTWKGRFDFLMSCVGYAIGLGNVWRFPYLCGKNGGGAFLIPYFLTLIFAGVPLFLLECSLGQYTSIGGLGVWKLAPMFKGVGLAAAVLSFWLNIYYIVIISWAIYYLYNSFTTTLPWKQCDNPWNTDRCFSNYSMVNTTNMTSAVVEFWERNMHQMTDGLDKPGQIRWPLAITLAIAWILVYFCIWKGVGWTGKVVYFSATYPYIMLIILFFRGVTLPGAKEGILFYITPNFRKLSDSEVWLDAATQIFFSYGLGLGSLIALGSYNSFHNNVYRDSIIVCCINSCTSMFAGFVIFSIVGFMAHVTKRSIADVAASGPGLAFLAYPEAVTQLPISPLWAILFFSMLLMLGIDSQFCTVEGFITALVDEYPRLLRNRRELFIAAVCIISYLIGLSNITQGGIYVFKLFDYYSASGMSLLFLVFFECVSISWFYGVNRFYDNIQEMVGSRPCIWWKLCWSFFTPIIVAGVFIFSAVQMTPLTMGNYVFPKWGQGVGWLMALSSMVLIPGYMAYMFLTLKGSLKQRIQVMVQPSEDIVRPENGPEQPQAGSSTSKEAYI
DAT (hDAT), sequence (Q01959 whole entry): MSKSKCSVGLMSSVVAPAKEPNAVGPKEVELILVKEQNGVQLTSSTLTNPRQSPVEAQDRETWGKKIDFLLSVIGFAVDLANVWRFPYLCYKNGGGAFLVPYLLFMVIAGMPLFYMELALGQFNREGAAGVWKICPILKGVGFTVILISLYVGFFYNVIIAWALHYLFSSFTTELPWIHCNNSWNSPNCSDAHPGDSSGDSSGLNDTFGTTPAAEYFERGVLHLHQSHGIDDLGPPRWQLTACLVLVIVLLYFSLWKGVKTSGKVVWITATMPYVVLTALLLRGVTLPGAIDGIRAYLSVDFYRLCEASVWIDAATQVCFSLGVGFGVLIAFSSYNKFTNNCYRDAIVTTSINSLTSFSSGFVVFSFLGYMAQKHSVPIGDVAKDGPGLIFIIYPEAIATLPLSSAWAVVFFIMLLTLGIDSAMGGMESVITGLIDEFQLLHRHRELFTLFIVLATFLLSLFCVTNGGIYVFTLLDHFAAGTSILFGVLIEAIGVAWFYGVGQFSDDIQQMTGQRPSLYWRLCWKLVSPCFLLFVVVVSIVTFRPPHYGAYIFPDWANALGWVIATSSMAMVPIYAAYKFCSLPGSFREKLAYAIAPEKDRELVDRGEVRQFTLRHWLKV
SERT (hSERT), sequence (P31645 whole entry): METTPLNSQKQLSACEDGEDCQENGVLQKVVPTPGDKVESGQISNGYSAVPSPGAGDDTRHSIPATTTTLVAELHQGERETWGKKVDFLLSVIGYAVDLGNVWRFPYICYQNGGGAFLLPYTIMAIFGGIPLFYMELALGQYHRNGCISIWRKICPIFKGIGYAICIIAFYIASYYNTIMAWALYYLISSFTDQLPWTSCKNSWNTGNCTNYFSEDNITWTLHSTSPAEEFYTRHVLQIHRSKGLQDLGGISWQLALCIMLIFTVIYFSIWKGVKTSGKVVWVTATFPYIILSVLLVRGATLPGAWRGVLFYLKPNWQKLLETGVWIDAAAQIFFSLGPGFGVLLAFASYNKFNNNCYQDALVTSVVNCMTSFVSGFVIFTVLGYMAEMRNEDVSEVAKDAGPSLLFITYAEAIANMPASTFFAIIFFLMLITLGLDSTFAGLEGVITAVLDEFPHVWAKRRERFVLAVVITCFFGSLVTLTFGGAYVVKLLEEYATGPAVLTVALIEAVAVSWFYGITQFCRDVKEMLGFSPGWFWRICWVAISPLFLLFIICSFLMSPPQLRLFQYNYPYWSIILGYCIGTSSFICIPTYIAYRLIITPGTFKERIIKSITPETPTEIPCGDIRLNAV

What is called IC50 is the concentration that gives 50% inhibition. Regarding `COc1ccc(C2C3=C(CCCC3=O)Nc3ccccc3N2C(=O)c2ccccc2)cc1` (stereo not drawn) [10c], the IC50 in data set [1] stood at 0.66 ± 0.07 µM.

With `O=C1CCCC2=C1C(c1ccc(Cl)c(Cl)c1)N(C(=O)c1ccccc1)c1ccccc1N2` (stereo not drawn) [10d], the half-maximal inhibitory concentration (IC50) in [1] was determined as 2.5 ± 0.4 µM.

In the case of `CC1(C)CC(=O)C2=C(C1)Nc1ccccc1N(C(=O)c1ccccc1)C2c1ccc2c(c1)OCO2` (stereo not drawn) [11x], the half-inhibitory concentration (IC50) in data set [2] was 0.8 ± 0.3 µM; at GAT1 (hGAT1) it was more than 80 µM; in data set [3], more than 80 µM; against DAT (hDAT) it was more than 80 µM; on SERT (hSERT), more than 80 µM.

Regarding `COc1ccc(C2C3=C(CC(C)CC3=O)Nc3ccccc3N2C(=O)c2ccccc2)cc1` (stereo not drawn) [14c], the IC50 was more than 80 µM on GAT1 (hGAT1); 1 ± 0.4 µM in data set [4]; more than 80 µM in data set [3]; 0.24 ± 0.05 µM in data set [5]; more than 80 µM at DAT (hDAT); more than 80 µM against SERT (hSERT).

`COc1ccc(C2C3=C(CCCC3=O)Nc3ccccc3N2C(=O)c2ccccc2)cc1OC` (stereo not drawn) [10b] registered an IC50 in [1] of 1.4 ± 0.2 µM.

In the case of `CC1(C)CC(=O)C2=C(C1)Nc1ccccc1N(C(=O)c1ccccc1)C2c1ccc(C(C)(C)C)cc1` (stereo not drawn) [11n], the half-inhibitory concentration (IC50) (in [2]; against GAT1 (hGAT1); in data set [3]; on SERT (hSERT)) was more than 80 µM throughout.

`O=C1CCCC2=C1C(c1ccc(F)cc1)N(C(=O)c1ccccc1)c1ccccc1N2` (stereo not drawn) [10e] displayed a half-maximal inhibitory concentration (IC50) in data set [1] of 2.9 ± 0.6 µM.

In data set [6], `CC(C)C[C@H](N)C(=O)O` [leucine] returned an IC50 of 210 ± 30 µM.

The molecule `O=C1CCCC2=C1C(c1ccccc1)N(C(=O)c1ccccc1)c1ccccc1N2` (stereo not drawn) [10f] displayed an IC50 in [1] of 1.2 ± 0.2 µM.

For the molecule `COc1cc(C2C3=C(CCCC3=O)Nc3ccccc3N2C(=O)c2ccccc2)ccc1O` (stereo not drawn) [10a], the IC50 in data set [1] is 0.93 ± 0.08 µM; at GAT1 (hGAT1), more than 80 µM; in [3], more than 80 µM; against SERT (hSERT), more than 80 µM.

Take `COc1ccc(C2C3=C(CC(c4ccc(OC)c(OC)c4)CC3=O)Nc3ccccc3N2C(=O)c2ccccc2)cc1` (stereo not drawn) [14f]: the half-inhibitory concentration (IC50) (against GAT1 (hGAT1); in data set [3]; in [5]; on SERT (hSERT)) was more than 80 µM in each case.

For the molecule `O=C(O)[C@@H]1CCCN1` [proline], in data set [7], the midpoint of inhibition, the IC50, lay at 257 ± 53 µM.

Consider `COc1ccc(C2C3=C(CC(c4ccco4)CC3=O)Nc3ccccc3N2C(=O)c2ccccc2)cc1` (stereo not drawn) [14d], for which the IC50 against GAT1 (hGAT1) was more than 80 µM; in data set [3], more than 80 µM; in data set [5], 0.49 ± 0.03 µM; against DAT (hDAT), more than 80 µM; against SERT (hSERT), more than 80 µM.

B1: B^0AT2/SLC6A15 (eGFP-hSLC6A15) (Homo sapiens) (protein)
chain: T1 sequence (Q9H2J7 1-730)
The Km is the concentration of substrate that gives half-maximal velocity. Regarding B1, in [8], the Michaelis-Menten constant (Km) came to 960 ± 51 µM.
